According to paper PMC3478282, “Probing the Putative Active Site of YjdL: An Unusual Proton-Coupled Oligopeptide Transporter from E. coli” (PLoS ONE, 2012):
Numbering of substitutions follows the chain as printed. Residues, ends and D or L forms follow the SMILES beside them.

Columns and labels:
Assay type in all cases: cell-based, E. coli
[1] = target: T1, YjdL Tyr25Phe (Escherichia coli, UniProt P39276, Y25F); test: β-Ala-Lys(AMCA) uptake and inhibition assay, YjdL Tyr25Phe; details: for IC50: 0.2 mM β-Ala-Lys(AMCA), 5 min incubation, pH 6.5, ±SEM, n≥3
T1 construct: expressed in transfected cells; host or cells: E. coli BL21(DE3)pLysS, pTTQ18-yjdL mutant (QuikChange)
T1 sequence (P39276 1-485 Y25F): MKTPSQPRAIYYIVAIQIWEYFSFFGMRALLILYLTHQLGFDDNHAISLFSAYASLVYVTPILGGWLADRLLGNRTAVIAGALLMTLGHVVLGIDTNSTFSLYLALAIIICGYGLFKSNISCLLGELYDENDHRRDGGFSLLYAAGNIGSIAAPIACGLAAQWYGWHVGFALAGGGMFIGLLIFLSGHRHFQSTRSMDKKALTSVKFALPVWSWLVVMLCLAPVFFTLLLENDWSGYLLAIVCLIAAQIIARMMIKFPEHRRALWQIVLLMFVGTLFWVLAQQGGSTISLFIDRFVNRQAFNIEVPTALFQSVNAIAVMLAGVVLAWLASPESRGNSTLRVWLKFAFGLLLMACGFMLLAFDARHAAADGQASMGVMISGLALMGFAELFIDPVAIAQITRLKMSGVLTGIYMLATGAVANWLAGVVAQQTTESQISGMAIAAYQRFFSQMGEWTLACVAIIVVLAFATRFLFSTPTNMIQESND
Description: (§1) Plasmids were transformed into E. coli BL21(DE3)pLysS cells by heat shock and transformants were selected on agar plates containing 100 µg/mL ampicillin and 34 µg/mL chloramphenicol. Single transformants were inoculated into 2 mL LB-media with antibiotics as above and grown overnight. The cultures were diluted 1∶50 in 5 mL LB-media with antibiotics as above, and at an OD600 of 0.5–0.8 protein expression was induced by the addition of 1 mM isopropyl β-D-1-thiogalactopyranoside (IPTG). The cells were harvested after three hours of induction by centrifugation and resuspended in uptake buffer (50 mM MES pH 6.5, 140 mM NaCl, 5.4 mM KCl, 1.8 mM CaCl2, 0.8 mM MgSO4, and 5 mM glucose).
(§2) Uptake assays were performed as previously described, [20]. In a final assay volume of 100 µL; 0.2 mM β-Ala-Lys-N-7-amino-4-methylcoumarin-3-acetic acid (β-Ala-Lys(AMCA), Biotrend) (10 µL) and various concentrations of ligands (purchased from Bachem or Sigma-Aldrich) or uptake buffer (50 µL) were incubated with bacterial cell suspension (OD600 = 10, 40 µL) at 37°C. After 5 min, the uptake was stopped by addition of 500 µL ice-cold uptake buffer followed by immediate centrifugation and washing twice in ice-cold uptake buffer. Finally the cell pellet was resuspended in 100 µL uptake buffer, and the uptake was quantified by fluorescence measurements (excitation at 340 nm and emission at 460 nm) on a Safire 2 fluorimeter. Non-specific uptake was measured as described above on IPTG-induced E. coli BL21(DE3)pLysS cells harboring the empty pTTQ18 vector. All uptake assay experiments were reproduced at least three times independently and data analyses were performed using GraphPad Prism ver. 5.

[2] = target: T2, YjdL Trp278Phe (Escherichia coli, UniProt P39276, W278F); test: β-Ala-Lys(AMCA) uptake and inhibition assay, YjdL Trp278Phe; details: 0.2 mM β-Ala-Lys(AMCA), 5 min incubation, pH 6.5; ±SEM, n≥3
T2 construct: host or cells: E. coli BL21(DE3)pLysS
T2 sequence (P39276 1-485 W278F): T1 sequence (P39276 1-485 Y25F) with F25Y, W278F
Description: as §1, §2

[3] = target: T3, YjdL Tyr58Phe (Escherichia coli, UniProt P39276, Y58F); test: β-Ala-Lys(AMCA) uptake and inhibition assay, YjdL Tyr58Phe; details: for IC50: 0.5 mM β-Ala-Lys(AMCA), 15 min incubation, pH 6.5, ±SEM, n≥3, read-out: IC50 (inhibition of β-Ala-Lys(AMCA) uptake), Tyr58Phe b
T3 construct: expressed in transfected cells; host or cells: E. coli BL21(DE3)pLysS, pTTQ18-yjdL mutant (QuikChange)
T3 sequence (P39276 1-485 Y58F): T1 sequence (P39276 1-485 Y25F) with F25Y, Y58F
Description: as §1, §2

[4] = target: T4, YjdL Ala281Phe (Escherichia coli, UniProt P39276, A281F); test: β-Ala-Lys(AMCA) uptake and inhibition assay, YjdL Ala281Phe; details: for IC50: 0.2 mM β-Ala-Lys(AMCA), 5 min incubation, pH 6.5, ±SEM, n≥3
T4 construct: host or cells: E. coli BL21(DE3)pLysS
T4 sequence (P39276 1-485 A281F): T1 sequence (P39276 1-485 Y25F) with F25Y, A281F
Description: as §1, §2

[5] = 0.2 mM, 5 min, pH 6.5 (Figure 3)

| Compound | IC50 [1] | IC50 [2] | IC50 [3] | IC50 [4] | β-Ala-Lys(AMCA) uptake level, YjdL Tyr25Phe [1, 5] | β-Ala-Lys(AMCA) uptake level, YjdL Tyr58Phe [3, 5] | increase of β-Ala-Lys(AMCA) uptake compared to WT-YjdL, Ala281Phe [4, 5] |
| --- | --- | --- | --- | --- | --- | --- | --- |
| C[C@H](N)C(=O)N[C@@H](C)C(=O)O [Ala-Ala] (H-Ala-Ala-OH) | > 50 mM | 9.9 ± 1 mM | 28.1 ± 5 mM | > 50 mM | – | – | – |
| C[C@H](N)C(=O)N[C@@H](CCCCN)C(=O)O [Ala-Lys] (H-Ala-Lys-OH) | 0.4 ± 0.08 mM | 0.38 mM | > 50 mM | 0.26 ± 0.02 mM | – | – | – |
| C[C@H](NC(=O)[C@@H](N)Cc1ccc(O)cc1)C(=O)O [Tyr-Ala] | 33.7 ± 3.9 mM | 2.8 ± 0.4 mM | 24.1 ± 2.8 mM | 33.2 ± 3.4 mM | – | – | – |
| β-Ala-Lys-N-7-amino-4-methylcoumarin-3-acetic acid [β-Ala-Lys(AMCA)] | – | – | – | – | 27% | 7% | ~3 fold |
